Assay results from ChEMBL document CHEMBL5518207, “Structure Guided Discovery of Novel Pan Metallo-β-Lactamase Inhibitors with Improved Gram-Negative Bacterial Cell Penetration” (J Med Chem, 2024).

Assays:
[1] = target: Voltage-gated inwardly rectifying potassium channel KCNH2 (Homo sapiens, UniProt Q12809); test: Inhibition of human ERG; assay type: toxicity
[2] = Inhibition of GST tagged IMP-1 (unknown origin) expressed in Escherichia coli BL21 Star (DE3) competent cells using CCF2-FA as substrate incubated for 2 hrs by fluorescence based analysis
[3] = tested on: Pseudomonas aeruginosa; test: Potentiation of imipenem induced antibacterial activity against isogenic efflux deleted mutant Pseudomonas aeruginosa MB9799 harbouring IMP incubated for 18 to 22 hrs imipenem and beta lactamase inhibitor by spectrophotometer based analysis; assay type: functional; settings: time 18-22 hrs
[4] = tested on: Pseudomonas aeruginosa; test: Potentiation of imipenem induced antibacterial activity against isogenic efflux wild type Pseudomonas aeruginosa MB9798 harbouring IMP incubated for 18 to 22 hrs imipenem and beta lactamase inhibitor by spectrophotometer based analysis; assay type: functional; settings: time 18-22 hrs
[5] = AUC in rat at 1 mg/kg, iv measured after 24 hrs by HPLC-MS analysis; assay type: ADME, organism-based; settings: in vivo
[6] = MRT in rat at 1 mg/kg, iv measured after 24 hrs by HPLC-MS analysis; assay type: ADME, organism-based; settings: in vivo
[7] = Toxicity in Wistar rat assessed as decrease in mean blood pressure at 30 mg/kg, iv measured after 20 mins; assay type: organism-based; settings: in vivo
[8] = tested on: Serratia marcescens; test: Potentiation of imipenem induced antibacterial activity against Serratia marcescens CL5741 harbouring IMP-1 incubated for 18 to 22 hrs imipenem by spectrophotometer based analysis; assay type: functional; settings: time 18-22 hrs
[9] = tested on: Klebsiella pneumoniae; test: Potentiation of imipenem induced antibacterial activity against Klebsiella pneumoniae IHMA599644 harbouring VIM-1 incubated for 18 to 22 hrs imipenem by spectrophotometer based analysis; assay type: functional; settings: time 18-22 hrs
[10] = target: Cytochrome P450 2C9 (Homo sapiens, UniProt P11712); test: Inhibition of CYP2C9 (unknown origin); assay type: ADME
Cytochrome P450 2C9, sequence (P11712 whole entry): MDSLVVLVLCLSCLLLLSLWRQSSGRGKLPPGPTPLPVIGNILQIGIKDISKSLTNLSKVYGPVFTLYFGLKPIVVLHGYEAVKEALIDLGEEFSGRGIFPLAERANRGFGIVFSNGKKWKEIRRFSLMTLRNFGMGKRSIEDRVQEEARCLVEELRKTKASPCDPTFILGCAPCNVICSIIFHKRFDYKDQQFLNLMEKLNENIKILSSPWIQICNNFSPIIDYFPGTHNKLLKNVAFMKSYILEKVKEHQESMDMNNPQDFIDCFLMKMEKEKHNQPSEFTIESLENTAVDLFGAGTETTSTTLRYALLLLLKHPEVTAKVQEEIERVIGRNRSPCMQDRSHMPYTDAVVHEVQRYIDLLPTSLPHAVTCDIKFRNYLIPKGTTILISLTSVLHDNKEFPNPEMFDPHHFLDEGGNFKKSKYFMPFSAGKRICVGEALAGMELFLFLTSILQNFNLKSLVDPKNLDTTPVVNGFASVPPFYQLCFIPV

[11] = Volume of distribution at steady state in Beagle dog at 1 mg/kg, iv measured after 24 hrs by HPLC-MS analysis; assay type: ADME, organism-based, Canis lupus familiaris; settings: in vivo, read-out: Vdss
[12] = Toxicity in Wistar rat assessed as increase in histamine concentration in plasma at 30 mg/kg, iv measured after 24 hrs; assay type: organism-based; settings: in vivo
[13] = target: Sodium channel protein type 5 subunit alpha (Homo sapiens, UniProt Q14524); test: Inhibition of NaV 1.5 channel (unknown origin)
Sodium channel protein type 5 subunit alpha, sequence (Q14524 whole entry): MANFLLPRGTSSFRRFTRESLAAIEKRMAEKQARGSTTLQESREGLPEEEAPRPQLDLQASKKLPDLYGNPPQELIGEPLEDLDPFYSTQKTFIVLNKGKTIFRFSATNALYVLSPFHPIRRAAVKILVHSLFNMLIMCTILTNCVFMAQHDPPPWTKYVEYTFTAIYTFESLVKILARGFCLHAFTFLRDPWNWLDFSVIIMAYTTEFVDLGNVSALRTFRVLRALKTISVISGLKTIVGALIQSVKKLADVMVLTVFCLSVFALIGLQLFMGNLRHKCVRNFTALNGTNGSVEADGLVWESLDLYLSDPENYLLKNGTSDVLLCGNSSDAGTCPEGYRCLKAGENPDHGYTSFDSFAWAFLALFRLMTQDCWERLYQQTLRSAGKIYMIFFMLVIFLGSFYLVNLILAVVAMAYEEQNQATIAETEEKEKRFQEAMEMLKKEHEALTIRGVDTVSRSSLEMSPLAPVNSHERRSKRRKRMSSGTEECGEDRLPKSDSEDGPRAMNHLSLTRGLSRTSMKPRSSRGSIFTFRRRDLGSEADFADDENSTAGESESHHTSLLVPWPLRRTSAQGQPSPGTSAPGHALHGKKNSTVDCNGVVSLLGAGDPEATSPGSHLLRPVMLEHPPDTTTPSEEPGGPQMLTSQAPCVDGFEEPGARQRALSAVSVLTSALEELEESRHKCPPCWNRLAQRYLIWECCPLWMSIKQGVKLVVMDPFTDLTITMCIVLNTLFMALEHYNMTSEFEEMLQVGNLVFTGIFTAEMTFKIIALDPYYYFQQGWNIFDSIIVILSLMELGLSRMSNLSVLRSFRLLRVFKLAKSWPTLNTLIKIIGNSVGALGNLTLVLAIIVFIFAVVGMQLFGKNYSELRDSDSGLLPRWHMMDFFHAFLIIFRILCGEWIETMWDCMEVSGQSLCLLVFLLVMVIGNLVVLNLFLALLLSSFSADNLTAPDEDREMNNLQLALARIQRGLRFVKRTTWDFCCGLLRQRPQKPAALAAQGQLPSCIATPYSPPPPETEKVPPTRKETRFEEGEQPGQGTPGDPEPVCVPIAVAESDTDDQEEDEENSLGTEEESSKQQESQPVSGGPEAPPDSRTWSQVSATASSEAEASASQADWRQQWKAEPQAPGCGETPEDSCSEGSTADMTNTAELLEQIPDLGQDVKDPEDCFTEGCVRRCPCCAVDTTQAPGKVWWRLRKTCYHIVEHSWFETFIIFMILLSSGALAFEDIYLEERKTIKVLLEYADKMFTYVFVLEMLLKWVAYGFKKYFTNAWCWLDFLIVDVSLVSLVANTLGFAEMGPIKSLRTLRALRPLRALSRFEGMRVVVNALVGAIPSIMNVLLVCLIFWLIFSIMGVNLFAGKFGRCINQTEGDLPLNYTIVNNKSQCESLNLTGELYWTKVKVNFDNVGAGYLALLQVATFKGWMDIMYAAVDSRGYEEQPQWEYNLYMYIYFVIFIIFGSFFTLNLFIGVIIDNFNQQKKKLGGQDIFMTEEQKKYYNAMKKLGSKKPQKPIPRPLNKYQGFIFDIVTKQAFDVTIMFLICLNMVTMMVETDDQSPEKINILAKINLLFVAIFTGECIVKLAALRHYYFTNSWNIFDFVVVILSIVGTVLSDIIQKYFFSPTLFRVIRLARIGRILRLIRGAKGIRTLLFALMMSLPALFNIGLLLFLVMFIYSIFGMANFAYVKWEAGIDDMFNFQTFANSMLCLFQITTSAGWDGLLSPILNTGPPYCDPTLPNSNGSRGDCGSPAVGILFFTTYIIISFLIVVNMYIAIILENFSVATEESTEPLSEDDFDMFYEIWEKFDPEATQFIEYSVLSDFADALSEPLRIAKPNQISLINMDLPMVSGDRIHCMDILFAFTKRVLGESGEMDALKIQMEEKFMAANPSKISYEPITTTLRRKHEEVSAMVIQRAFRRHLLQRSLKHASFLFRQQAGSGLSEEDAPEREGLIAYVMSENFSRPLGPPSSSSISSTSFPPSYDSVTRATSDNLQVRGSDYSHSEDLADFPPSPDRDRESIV

[14] = Inhibition of GST tagged VIM-2 (unknown origin) expressed in Escherichia coli BL21 Star (DE3) competent cells using CCF2-FA as substrate incubated for 2 hrs by fluorescence based analysis
[15] = tested on: Pseudomonas aeruginosa; test: Efflux ratio of MITC95 for potentiation of imipenem induced antibacterial activity against isogenic efflux wild type Pseudomonas aeruginosa MB9798 harbouring IMP to MITC95 for potentiation of imipenem induced antibacterial activity against isogenic efflux deleted mutant Pseudomonas aeruginosa MB9799 harbouring IMP; assay type: functional
[16] = Inhibition of GST tagged NDM-1 (unknown origin) expressed in Escherichia coli BL21 Star (DE3) competent cells using CCF2-FA as substrate incubated for 2 hrs by fluorescence based analysis
[17] = Toxicity in Beagle dog assessed as emesis at 1 mg/kg, iv measured after 24 hrs by HPLC-MS analysis; assay type: organism-based, Canis lupus familiaris; settings: in vivo
[18] = Inhibition of GST tagged VIM-1 (unknown origin) expressed in Escherichia coli BL21 Star (DE3) competent cells using CCF2-FA as substrate incubated for 2 hrs by fluorescence based analysis
[19] = target: Cytochrome P450 2D6 (Homo sapiens, UniProt P10635); test: Inhibition of CYP2D6 (unknown origin); assay type: ADME
[20] = target: T1, Cytochrome P450 2C8 (Homo sapiens, UniProt P10632); test: Inhibition of CYP2C8 (unknown origin); assay type: ADME
T1 sequence (P10632 whole entry): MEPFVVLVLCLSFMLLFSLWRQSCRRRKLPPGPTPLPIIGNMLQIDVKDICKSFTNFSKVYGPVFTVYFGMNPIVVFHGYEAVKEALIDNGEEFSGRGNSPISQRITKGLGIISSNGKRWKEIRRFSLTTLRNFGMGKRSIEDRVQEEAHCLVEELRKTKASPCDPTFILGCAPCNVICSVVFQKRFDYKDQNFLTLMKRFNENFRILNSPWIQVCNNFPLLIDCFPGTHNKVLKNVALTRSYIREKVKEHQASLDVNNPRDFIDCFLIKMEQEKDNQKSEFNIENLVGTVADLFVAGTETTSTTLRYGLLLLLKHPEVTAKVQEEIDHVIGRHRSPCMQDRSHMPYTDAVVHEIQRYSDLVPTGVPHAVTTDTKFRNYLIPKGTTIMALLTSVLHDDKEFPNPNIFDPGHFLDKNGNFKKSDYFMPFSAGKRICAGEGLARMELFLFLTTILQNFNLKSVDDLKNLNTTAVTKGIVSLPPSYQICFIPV

[21] = target: Cytochrome P450 3A4 (Homo sapiens, UniProt P08684); test: Inhibition of CYP3A4 (unknown origin); assay type: ADME
Cytochrome P450 3A4, sequence (P08684 whole entry): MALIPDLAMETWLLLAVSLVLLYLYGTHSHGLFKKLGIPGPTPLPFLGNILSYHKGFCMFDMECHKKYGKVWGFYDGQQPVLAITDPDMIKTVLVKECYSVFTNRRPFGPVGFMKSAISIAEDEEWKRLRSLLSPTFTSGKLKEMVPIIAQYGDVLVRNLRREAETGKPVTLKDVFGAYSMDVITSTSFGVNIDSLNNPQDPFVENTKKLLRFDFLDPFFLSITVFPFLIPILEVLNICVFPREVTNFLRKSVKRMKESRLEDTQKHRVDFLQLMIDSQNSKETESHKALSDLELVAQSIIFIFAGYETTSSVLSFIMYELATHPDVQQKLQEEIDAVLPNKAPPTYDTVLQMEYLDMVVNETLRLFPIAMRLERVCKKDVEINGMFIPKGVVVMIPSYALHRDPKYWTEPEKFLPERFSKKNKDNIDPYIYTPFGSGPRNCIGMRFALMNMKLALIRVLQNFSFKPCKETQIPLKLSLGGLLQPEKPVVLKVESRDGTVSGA

[22] = target: Voltage-dependent L-type calcium channel subunit alpha-1C (Homo sapiens, UniProt Q13936); test: Inhibition of Cav1.2 channel (unknown origin)
[23] = Volume of distribution at steady state in rat at 1 mg/kg, iv measured after 24 hrs by HPLC-MS analysis; assay type: ADME, organism-based; settings: in vivo, read-out: Vdss
[24] = Cmax in Wistar rat at 30 mg/kg, iv measured after 24 hrs by HPLC-MS analysis; assay type: ADME, organism-based; settings: in vivo
[25] = Clearance in Beagle dog at 1 mg/kg, iv measured after 24 hrs by HPLC-MS analysis; assay type: ADME, organism-based, Canis lupus familiaris; settings: in vivo
[26] = Unbound fraction in Beagle dog plasma at 1 mg/kg, iv measured after 24 hrs by HPLC-MS analysis; assay type: ADME, organism-based, Canis lupus familiaris
[27] = Clearance in rat at 1 mg/kg, iv measured after 24 hrs by HPLC-MS analysis; assay type: ADME, organism-based; settings: in vivo
[28] = Toxicity in Beagle dog assessed as appearance of watery eyes at 1 mg/kg, iv measured after 24 hrs by HPLC-MS analysis; assay type: organism-based, Canis lupus familiaris; settings: in vivo
[29] = MRT in Beagle dog at 1 mg/kg, iv measured after 24 hrs by HPLC-MS analysis; assay type: ADME, organism-based, Canis lupus familiaris; settings: in vivo
[30] = Unbound fraction in rat plasma at 1 mg/kg, iv measured after 24 hrs by HPLC-MS analysis; assay type: ADME, organism-based
[31] = tested on: Escherichia coli; test: Potentiation of imipenem induced antibacterial activity against Escherichia coli CLB30005 harbouring NDM-1 incubated for 18 to 22 hrs in presence of imipenem by spectrophotometer based analysis; assay type: functional; settings: time 18-22 hrs
[32] = Toxicity in Beagle dog assessed as increase in histamine level in plasma at 1 mg/kg, iv measured upto 24 hrs by HPLC-MS analysis; assay type: organism-based, Canis lupus familiaris; settings: in vivo
[33] = Cmax in rat at 1 mg/kg, iv measured after 24 hrs by HPLC-MS analysis; assay type: ADME, organism-based; settings: in vivo
[34] = target: Voltage-gated potassium channel, IKs; KCNQ1(Kv7.1)/KCNE1(MinK) (Homo sapiens, UniProt P15382+P51787); test: Inhibition of KCNQ1/KCNE1 (unknown origin); assay type: protein-complex assay
Voltage-gated potassium channel, IKs; KCNQ1(Kv7.1)/KCNE1(MinK), sequence (P51787 whole entry): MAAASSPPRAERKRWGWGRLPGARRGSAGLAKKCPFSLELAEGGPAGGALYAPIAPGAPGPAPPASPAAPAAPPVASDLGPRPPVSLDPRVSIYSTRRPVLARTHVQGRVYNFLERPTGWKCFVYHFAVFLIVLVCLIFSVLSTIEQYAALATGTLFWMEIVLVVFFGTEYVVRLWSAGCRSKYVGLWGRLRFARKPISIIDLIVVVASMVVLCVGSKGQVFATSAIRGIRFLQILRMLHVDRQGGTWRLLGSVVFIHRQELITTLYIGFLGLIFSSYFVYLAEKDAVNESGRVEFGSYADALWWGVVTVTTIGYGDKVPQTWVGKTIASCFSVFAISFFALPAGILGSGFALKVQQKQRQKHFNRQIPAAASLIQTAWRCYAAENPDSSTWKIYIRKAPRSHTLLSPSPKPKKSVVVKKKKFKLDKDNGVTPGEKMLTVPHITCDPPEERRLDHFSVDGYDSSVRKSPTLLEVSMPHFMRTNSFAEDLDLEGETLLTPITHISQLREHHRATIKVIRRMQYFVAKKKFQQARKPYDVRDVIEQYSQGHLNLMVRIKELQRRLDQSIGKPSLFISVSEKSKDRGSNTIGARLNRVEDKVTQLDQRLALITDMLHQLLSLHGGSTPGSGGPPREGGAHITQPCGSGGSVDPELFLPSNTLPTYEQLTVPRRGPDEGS

[35] = AUC in Beagle dog at 1 mg/kg, iv measured after 24 hrs by HPLC-MS analysis; assay type: ADME, organism-based, Canis lupus familiaris; settings: in vivo
[36] = Cmax in Beagle dog at 1 mg/kg, iv measured after 24 hrs by HPLC-MS analysis; assay type: ADME, organism-based, Canis lupus familiaris; settings: in vivo
[37] = Clearance in rat at 5 mg/kg, iv measured after 24 hrs by HPLC-MS analysis; assay type: ADME, organism-based; settings: in vivo
[38] = Toxicity in Wistar rat assessed as decrease in mean blood pressure at 100 mg/kg, iv measured after 20 mins; assay type: organism-based; settings: in vivo
[39] = Unbound fraction in rat plasma at 5 mg/kg, iv measured after 24 hrs by HPLC-MS analysis; assay type: ADME, organism-based
[40] = MRT in rat at 5 mg/kg, iv measured after 24 hrs by HPLC-MS analysis; assay type: ADME, organism-based; settings: in vivo
[41] = Cmax in Wistar rat at 100 mg/kg, iv measured after 24 hrs by HPLC-MS analysis; assay type: ADME, organism-based; settings: in vivo
[42] = Cmax in rat at 5 mg/kg, iv measured after 24 hrs by HPLC-MS analysis; assay type: ADME, organism-based; settings: in vivo
[43] = Toxicity in Wistar rat assessed as increase in histamine concentration in plasma at 100 mg/kg, iv measured after 24 hrs; assay type: organism-based; settings: in vivo
[44] = Toxicity in Beagle dog assessed as drug tolerability at 1 mg/kg, iv measured after 24 hrs by HPLC-MS analysis; assay type: organism-based, Canis lupus familiaris; settings: in vivo
[45] = AUC in rat at 5 mg/kg, iv measured after 24 hrs by HPLC-MS analysis; assay type: ADME, organism-based; settings: in vivo
[46] = Volume of distribution at steady state in rat at 5 mg/kg, iv measured after 24 hrs by HPLC-MS analysis; assay type: ADME, organism-based; settings: in vivo, read-out: Vdss
[47] = Cmax in Wistar rat at 5 mg/kg, iv administered as bolus dose measured after 24 hrs by HPLC-MS analysis; assay type: ADME, organism-based; settings: in vivo

Voltage-gated inwardly rectifying potassium channel KCNH2, sequence (Q12809 whole entry): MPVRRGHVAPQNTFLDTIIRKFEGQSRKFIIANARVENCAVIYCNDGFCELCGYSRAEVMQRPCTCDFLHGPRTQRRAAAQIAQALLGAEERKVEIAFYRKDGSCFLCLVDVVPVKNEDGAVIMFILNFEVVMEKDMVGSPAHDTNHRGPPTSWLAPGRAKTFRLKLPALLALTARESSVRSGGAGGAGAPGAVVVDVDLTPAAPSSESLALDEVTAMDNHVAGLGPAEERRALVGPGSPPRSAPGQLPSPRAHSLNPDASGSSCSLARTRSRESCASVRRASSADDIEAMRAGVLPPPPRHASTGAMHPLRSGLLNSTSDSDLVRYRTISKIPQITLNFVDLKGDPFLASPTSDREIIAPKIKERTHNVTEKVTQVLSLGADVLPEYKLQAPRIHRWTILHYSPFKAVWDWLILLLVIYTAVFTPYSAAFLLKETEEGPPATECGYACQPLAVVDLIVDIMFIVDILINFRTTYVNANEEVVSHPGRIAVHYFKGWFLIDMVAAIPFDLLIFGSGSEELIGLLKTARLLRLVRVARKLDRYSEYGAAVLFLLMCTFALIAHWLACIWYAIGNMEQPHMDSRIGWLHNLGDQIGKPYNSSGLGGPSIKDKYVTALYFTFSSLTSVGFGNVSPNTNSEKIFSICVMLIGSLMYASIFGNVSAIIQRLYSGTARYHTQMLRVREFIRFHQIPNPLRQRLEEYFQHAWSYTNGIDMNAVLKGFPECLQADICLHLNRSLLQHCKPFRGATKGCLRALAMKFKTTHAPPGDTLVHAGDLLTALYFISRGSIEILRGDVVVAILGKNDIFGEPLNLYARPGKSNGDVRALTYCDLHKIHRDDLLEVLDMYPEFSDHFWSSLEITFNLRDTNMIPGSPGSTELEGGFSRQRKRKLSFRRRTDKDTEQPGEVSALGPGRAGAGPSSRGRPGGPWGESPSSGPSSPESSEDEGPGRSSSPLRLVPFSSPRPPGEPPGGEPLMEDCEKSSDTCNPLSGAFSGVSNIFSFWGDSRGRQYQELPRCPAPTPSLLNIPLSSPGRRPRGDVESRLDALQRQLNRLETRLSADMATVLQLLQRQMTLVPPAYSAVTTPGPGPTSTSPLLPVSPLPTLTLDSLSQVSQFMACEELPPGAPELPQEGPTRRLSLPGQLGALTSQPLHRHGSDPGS

| SMILES | IC50 [1] | IC50 [2] | MITC95 [3] | MITC95 [4] | MITC95 [8] | MITC95 [9] | IC50 [10] | IC50 [13] | IC50 [14] | Ratio [15] | IC50 [16] | IC50 [18] | IC50 [19] | IC50 [20] | IC50 [21] | IC50 [22] | MITC95 [31] | IC50 [34] | Cmax [36] | further results |
| --- | --- | --- | --- | --- | --- | --- | --- | --- | --- | --- | --- | --- | --- | --- | --- | --- | --- | --- | --- | --- |
| NS(=O)(=O)c1c(CC2CCNCC2)ccc(-c2ccc(C3CCNCC3)cc2)c1-c1nn[nH]n1 | > 30000 nM | 24 nM | 0.8 µM | 4.4 µM | 3.9 µM | 2.3 µM | > 50000 nM | > 30000 nM | 1230 nM | 6 | 11 nM | 5 nM | > 50000 nM | > 50000 nM | > 50000 nM | > 30000 nM | 2 µM | > 30000 nM | 15 µM | AUC at 24 h [5]: 5.5 µM·h; MRT [6]: 52.8 min; Activity [7]: Toxic; Vd [11]: 0.45 L/kg; Activity [12]: Toxic; Activity [17]: Toxic; Vd [23]: 0.34 L/kg; Cmax [24]: 459 µM; clearance [25]: 3.5 mL/min/kg; fraction unbound at 24 h [26]: 0.84; clearance [27]: 6.4 mL/min/kg; Activity [28]: Toxic; MRT [29]: 192 min; fraction unbound at 24 h [30]: 0.8; Activity [32]: Toxic; Cmax [33]: 8.6 µM; AUC at 24 h [35]: 10.4 µM·h |
| NS(=O)(=O)c1c(C(F)(F)F)ccc(-c2ccc(C3CCN(CC4CNC4)CC3)cc2)c1-c1nnn[nH]1 | > 30000 nM | 0.4 nM | 0.39 µM | 4.7 µM | 1.6 µM | 7.8 µM | > 50000 nM | > 30000 nM | 62 nM | 12 | 2.3 nM | 3.8 nM | > 50000 nM | > 50000 nM | > 50000 nM | > 30000 nM | 0.6 µM | > 30000 nM | 13.8 µM | clearance [37]: 19 mL/min/kg; Activity [38]: Toxic; fraction unbound at 24 h [39]: 0.35; MRT [40]: 42.6 min; Cmax [41]: 726 µM; Cmax [42]: 33.1 µM; Activity [43]: Toxic; Activity [44]: Non-Toxic; AUC at 24 h [45]: 9.6 µM·h; Vd [46]: 0.73 L/kg |
| NS(=O)(=O)c1c(CC2CNC2)ccc(-c2ccc(C3CCNCC3)cc2)c1-c1nn[nH]n1 |  | 26 nM | 0.8 µM | 3.1 µM | 1.6 µM | 1.6 µM |  |  |  | 4 | 11 nM | 7 nM |  |  |  |  | 0.8 µM |  |  | Cmax [47]: 45 µM |
